Here are results for 10 molecules from patent US5633277A, “Sulfonamide aminomethylene derivatives as immunosuppressants” (Miles Inc., priority 1995, dated 1997).

SMILES strings stand for the structures. Some results are limits rather than exact numbers.

Test [1] deals with human T-cells. Kind of test: Suppression of Human T-Cell Proliferation Assay (mitogen-induced, [3H]-thymidine incorporation). It is filed as cell-based. The note with it: for IC50: Homo sapiens, T-cell, 72 hours incubation, mitogen stimulated, read-out: IC50 (inhibition of [3H]-thymidine incorporation of T-cells by 50%). The text has this: 2) Human T Lymphocyte Inhibition
Inhibition of mitogen-induced T-cell proliferation can be used to profile immunosuppressive activity of test compounds. In the description of the assay which follows, mitogen-induced T-cell proliferation was used to test the inhibitory potencies of select compounds of the present invention.
In an assay similar to that described by Bradley in Mishell et al. (Eds.), 1980, Selected Methods in Cellular Immunology, pp 156-161, W. H. Freeman & Co., San Fransisco, Calif., T-cells were stimulated by incubation with phytohemagglutinin (PPIA) which binds to cell surface molecules, including the T-cell receptor. This stimulation results in proliferation which can be measured by incorporation of [^3 H]-thymidine into cellular DNA.
The immunosuppressive properties of the compounds of the present invention can be determined by adding various concentrations of the compounds to these cultures and measuring the effect on T-cell proliferation.
Suppression of Human T-Cell Proliferation Assay
Fresh LeukoPaks were obtained from the New York Blood Center, New York, N.Y. The cells, including erythrocytes and leukocytes, were diluted with Hank's Balanced Salt Solution (HBSS) (GIBCO, Grand Island, N.Y.) and layered over Lymphoprep (Nycomed Pharma AS, Oslo, Norway) in sterile 50 ml conical centrifuge tubes. Lymphocytes were isolated at the Hank's/Nycomed interface after centrifugation at 2000×g, 4° C. for 15 min. The lymphocytes were washed with Minimal Essential Medium (GIBCO) containing 2% fetal bovine serum (FBS) (Sigma Chemical Co., St. Louis, Mo.), 1% HEPES buffer (GIBCO) and 1% Penicillin-Stretomycin solution (GIBCO).
T-cells were further purified essentially by sheep erythrocyte (SRBC) rosetting as described by Morimoto et al., 1983, J. Immunol. 130:157. The isolated lymphocytes were adjusted to 2×10^7 cells/ml and 5 ml aliquots of the cell suspension were incubated for 10 minutes at room temperature with 5 ml of a 5% SRBC (Cappel, Organon Technika Corp., West Chester, Pa.) suspension. The cells were gently pelleted by centrifugation at 300 rpm for 10 minutes, followed by a 1 hour incubation at room temperature to allow rosette formation. The cells were gently resuspended,layered over Lymphoprep and centrifuged for 30 minutes at 500×g. The pellet, containing rosetted T-cells and SRBC was treated with ice cold buffered ammonium chloride (GIBCO) to lyse the erythrocytes. T-cells were washed twice with HBSS.
Purified T-cells were resuspended at 2×10^6 cells/ml in complete culture medium composed of RPMI-1640 (Whittaker Bioproducts, Walkerville, Md.) with 10% FBS (Sigma), 2 mM L-glutamine (GIBCO), 1% Penicillin-Streptomycin (GIBCO) and 15 mM HEPES (GIBCO). In 96-well plates (Becton Dickinson, Lincoln Park, N.J.), 0.1 ml aliquots of T-cell suspension were mixed with 0.05 ml of 40 μg/ml PPIA-M (Sigma). The compounds of this invention were dissolved in dimethylsulfoxide at 10 mM and various dilutions in complete medium were added in duplicate wells (0.05 ml/well). The plates were incubated at 37° C. in a humidified atmosphere of 5% carbon dioxide and 95% air for 72 hours.
Proliferation was assessed by measurement of [3H]-thymidine incorporation. During the last 6 hours of incubation, the cells were pulse labelled with 1 μCi/well of [3H]-thymidine (New England Nuclear, Boston, Mass.). The cells were harvested onto glass fiber paper using a plate harvester and the radioactivity incorporated into cellular DNA corresponding to individual wells was measured by standard liquid scintillation counting methods. The mean counts per minute (CPM) of replicate wells was calculated and linear regression analysis of mean CPM versus compound concentration was used to determine the concentration of compound which would inhibit [^3 H]-thymidine incorporation of T-cells by 50% (IC50).
On the technique in general: Incorporation of labelled thymidine or its analogues reports DNA synthesis.

Test [2] has as its system Lewis rats sensitized with Complete Freund's adjuvant. As to the kind of experiment: Adjuvant Arthritis Model in the Rat. It is filed as in vivo. The note with it: uninjected hind paw, day 0 to day 16, 10 mg/kg/dose i.p. An excerpt: Rats sensitized to mycobacterial antigens in Complete Freund's Adjuvant can develop a rapidly destructive adjuvant arthritis. Adjuvant arthritis appears to be an autoimmune disease. Thus, T lymphocytes from immunized donors can transfer the disease to naive recipients (Pearson and Wood, 1964, J. Exp. Med. 120:547.) and susceptibility is controlled, at least in part, by class II MHC genes (Batisto, et al. 1982, Arthritis Rheum. 25:1194).
Adjuvant Arthritis Model in the Rat
Complete Freund's adjuvant is made by supplementing extra heavy mineral oil with 10 mg/ml heat killed Mycobacterium butyricum (Difco Laboratories, Detroit, Mich.). Lewis rats (Charles Rivers, Willmington, Mass.) are given a 0. 1 ml injection of adjuvant (1 mg/animal mycobacterium) subcutaneously into the right hind footpad. In the injected foot, an acute inflammatory reaction occurs which is characterized by erythema, edema and a predominantly neutrophilic cell infiltrate. This is followed by edema in the uninjected contralateral foot by days 10-12. This secondary response is accompanied by a predominantly mononuclear cell infiltrate, indicating the presence of cell-mediated immunity.
The immune response is quantitated by measuring the change in ankle diameter of the uninjected hind paw from day 0 to day 16 post sensitization. This is accomplished using a hand-held dial micrometer. […]

Consider `CC(C)C[C@@H](CN1CCC[C@H]1C(=O)NCCCCc1ccccc1)NS(=O)(=O)/C=C/c1ccccc1` [Example 6, 1-[2-(S)-(2-phenyl-ethenesulfonylamino)-4-methylpentyl]-L-proline 4-Phenylbutylamtde], for which the IC50 in test [1] worked out at 5000 nM.
Same read-out and setting: the result for `Cc1ccc(S(=O)(=O)N[C@@H](CC(C)C)CN2CCC[C@H]2C(=O)NCCCCc2ccccc2)cc1` [Example 2, 1-[2-(S)-(Toluene-4-sulfonylamino)-4-methylpentyl]-L-proline 4-Phenylbutylamide] reads 8000 nM.
As for `CC(C)C[C@@H](CN1CCC[C@H]1C(=O)NCCCCc1ccccc1)NS(C)(=O)=O` [Example 1, 1-[2-(S)-Methanesulfonylamino-4-methylpentyl]-L-proline 4-Phenylbutylamide], in test [1], the “inhibition of mitogen-induced T-cell proliferation (in words)” value is on record as “inhibited mitogen induced T-cell proliferation” and the IC50 worked out at 2000 nM. The “Δ Ankle Diameter” value in test [2] stood at 1.6 ± 0.6 mm. Moreover, the “% Inhibition (of ankle swelling)” value in test [2] (vs vehicle control) was 51%.
As to `CC(C)C[C@@H](CN1CCC[C@H]1C(=O)NCCCCc1ccccc1)NS(=O)(=O)CC12CCC(CC1=O)C2(C)C` (single isomer, unassigned) [Example 7], in test [1], the IC50 amounted to 2000 nM.
Still for that read-out and setting: the result for `CC(C)C[C@@H](CN1CCC[C@H]1C(=O)NCCCCc1ccccc1)NS(=O)(=O)c1ccc(-c2ccon2)s1` [Example 8, 1-[2-(S)-(5 - [Isoxazol-25-yl]-thiophene-2-sulfonylamino)-4-methylpentyl]-L-proline 4-Phenylbutylamide] reads 1000 nM.
The same measure, in the same setting: under `CC(=O)Nc1nc(C)c(S(=O)(=O)N[C@@H](CC(C)C)CN2CCC[C@H]2C(=O)NCCCCc2ccccc2)s1` [Example 4, 1-[2-(S)-(2-Acetylamino-4-methyl-S-thiazolesulfonylamino)-4-methylpentyl]-L -proline 4-Phenylbutylamide] stands 2000 nM.
For `CC(C)C[C@@H](CN1CCC[C@H]1C(=O)NCCCCc1ccccc1)NS(=O)(=O)c1c(C(C)C)cc(C(C)C)cc1C(C)C` [Example 10, 1-[2-(S)-(2',4',6'-Triisopropylbenzenesulfonylamino)-4-methylpentyl]-L-proline 4-Phenylbutylamide], in test [1], the IC50 was found to be 4000 nM.
The same measure, in the same setting: the result for `CC(C)C[C@@H](CN1CCC[C@H]1C(=O)NCCCCc1ccccc1)NS(=O)(=O)c1cccs1` [Example 5, 1-[2-(S)-(Thiophene-2-sulfonylamino)-4-methylpentyl]-L-proline 4-Phenylbutylamide] reads 3000 nM; that for `CC[C@H](C)[C@H](NC(=O)[C@@H]1CCCCN1C[C@@H](NS(C)(=O)=O)[C@@H](C)CC)C(=O)NCc1ccccc1` [Example 11], more than 15000 nM.
On to `CC(C)C[C@@H](CN1CCC[C@H]1C(=O)NCCCCc1ccccc1)NS(=O)(=O)c1cccc2cccnc12` [Example 3, 1-[2-(S)-(Quinoline-8-sulfonylamino)-4-methylpentyl]-L-proline 4-Phenylbutylamide], for which, in test [1], the “inhibition of mitogen-induced T-cell proliferation (in words)” value was “inhibited mitogen induced T-cell proliferation” and the IC50 came out at 5000 nM.
